Data on 9 molecules can be found in PubChem BioAssay (NCI).

Assay in all cases: growth of human tumour cells (NCI), 48 h
Experiment [1] concerns SNB-75 CNS.
Experiment [2] relates to SK-MEL-28 melanoma.
Experiment [3] concerns BT-549 breast.
Experiment [4] relates to COLO 205 colon.
Experiment [5] has as its system SN12C renal.
For experiment [6], the system named is SF-295 CNS.
In experiment [7] the test system is UACC-257 melanoma.
Experiment [8] has as its system MCF7 breast.
Experiment [9] concerns HCT-116 colon.
Experiment [10] has as its system DU-145 prostate.

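Following 48 hours of exposure in 96-well plates, responses at five concentrations were used to interpolate endpoints linearly. At the GI50, growth is halved. TGI marks complete inhibition of growth.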

Regarding `O=[N+]([O-])c1cc[n+]([O-])c2ccccc12`, the GI50 in experiment [1] is 0.176 µM; in experiment [2], 1.24 µM; in [3], 0.2 µM; in [4] it was 0.153 µM; in [5] it was 0.244 µM; in experiment [6], 0.2 µM. Besides, the GI50 in experiment [7] was 0.229 µM; in experiment [8], 0.047 µM; in experiment [9] it was 0.0698 µM; in experiment [10] it was 0.0392 µM. Moreover, the TGI in [1] stood at 0.465 µM; in experiment [2] it was 2.64 µM; in experiment [3], 0.728 µM; in [4] it was 0.488 µM; in [5] it was 1.13 µM; in [6], 0.627 µM. The TGI is 0.77 µM in experiment [7], 2.2 µM in experiment [8], 0.316 µM in [9] and 0.173 µM in experiment [10].

Regarding `O=C(CCN1CCCC1)Nc1ccc2c(NCc3ccccc3)c3ccccc3nc2c1`, the GI50 was 0.398 µM in [1]; 1.17 µM in [2]; 1.4 µM in [3]; 0.319 µM in experiment [4]; 0.332 µM in [5]; 0.494 µM in experiment [6]. The GI50 in [7] was 1.45 µM; in [8], 0.286 µM; in experiment [9], 0.309 µM; in experiment [10], 0.394 µM. Also, the TGI is 1.7 µM in experiment [1]; 2.49 µM in [2]; 3.04 µM in [3]; 1.36 µM in experiment [4]; 1.52 µM in experiment [5]; 1.91 µM in [6]. The TGI in experiment [7] was 3.3 µM; in experiment [8], 1.18 µM; in experiment [9], 1.31 µM; in experiment [10], 1.51 µM.

`CCOc1ccc2c(-c3ccnc(Nc4cc(OC)cc(C(F)(F)F)c4)n3)cnn2n1`: the GI50 in experiment [1] was 15.1 µM; in experiment [2] it was above 23 µM; in experiment [3], 18.2 µM; in [4], above 25 µM; in experiment [5], above 25 µM; in experiment [6], above 14.6 µM. Besides, the GI50 in [7] is above 25 µM; in [8], 1.13 µM; in [9], 6.42 µM; in experiment [10], above 18.9 µM. The TGI in experiment [1], in experiment [2], in [3], in [4], in [5] and in [6] was above 25 µM throughout. The TGI in experiment [7], in experiment [8], in experiment [9] and in experiment [10] was above 25 µM each time.

With `NC(=N\N=C/c1ccc(O)cc1)/C(N)=N\N=C/c1ccc(O)cc1`, the GI50 in experiment [1] is 17.3 µM; in experiment [2], above 100 µM; in [3], 77.5 µM; in [4], above 93.5 µM; in [5] it was above 31 µM; in experiment [6], 3.3 µM. For the same molecule, the GI50 in experiment [7] was above 100 µM; in experiment [8] it was above 100 µM; in experiment [9] it was above 100 µM; in experiment [10], 20.2 µM. Also, the TGI is 43.3 µM in experiment [1]; above 100 µM in experiment [2]; above 100 µM in experiment [3]; above 100 µM in experiment [4]; above 100 µM in experiment [5]; above 100 µM in experiment [6]. For the same molecule, the TGI in experiment [7], in experiment [8], in experiment [9] and in experiment [10] was above 100 µM throughout.

Take `O=C(O)C(Cc1cnc[nH]1)N1C(=O)c2ccccc2C1=O` (stereo not given): the TGI was above 100 µM in experiment [1]; above 100 µM in [2]; above 100 µM in experiment [3]; above 100 µM in experiment [4]; above 100 µM in [5]; 98.5 µM in [6]. Also, the TGI in experiment [7], in [8], in [9] and in experiment [10] was above 100 µM each time.

For the molecule `CSC(=S)Nc1cc(C)cc(C)n1`, the TGI is above 10 µM in [1]; above 31.6 µM in [2]; above 100 µM in experiment [3]; above 31.6 µM in experiment [4]; above 31.6 µM in experiment [5]; above 31.6 µM in experiment [6]. Besides, the TGI in [7] is above 31.6 µM; in experiment [8], above 31.6 µM; in [9], above 10 µM; in experiment [10] it was above 31.6 µM.

Turning to `O=S(=O)(NC1CCCCC1)c1ccc2c(c1)OCCOCCOCCOCCO2`, the TGI in experiment [1], in [2], in experiment [3], in experiment [4], in experiment [5] and in [6] was above 100 µM throughout. The TGI in [7], in experiment [8], in [9] and in experiment [10] was above 100 µM in each case.

Turning to `[2H]C([2H])([2H])NC(=O)c1nnc(NC(=O)C2CC2)cc1Nc1cccc(-c2ncn(C)n2)c1OC`, the GI50 was 15 µM in experiment [1]; above 100 µM in experiment [2]; 23.2 µM in experiment [3]; 97.1 µM in experiment [4]; 34.5 µM in experiment [5]; 53.4 µM in experiment [6]. The GI50 in experiment [7] was above 100 µM; in [8], 92.9 µM; in experiment [9], 9.79 µM; in experiment [10], 14.9 µM. The TGI in [1], in experiment [2], in experiment [3], in experiment [4], in [5] and in [6] was above 100 µM each time. The TGI in [7], in experiment [8], in experiment [9] and in experiment [10] was above 100 µM each time.

On to `O=C1c2cc(Cc3ccccc3)c(=O)c(Cc3ccccc3)cc2C(=O)c2cc(Cc3ccccc3)c(=O)c(Cc3ccccc3)cc21`, for which the TGI in experiment [1], in experiment [2], in experiment [3], in [4], in experiment [5] and in [6] was above 100 µM throughout. For the same molecule, the TGI in [7], in experiment [8], in [9] and in [10] was above 100 µM each time.
